Assay results published in PubChem BioAssay AID1963845 (Molecular Pharmacology Branch, DTP, NCI, 2024).

Tested on: 429239-143-T-J1-PDC complex spheroid viability
Test: Anticancer human tumor 429239-143-T-J1-PDC patient-derived small cell lung carcinoma cell line growth inhibition [POLQ]
Conditions: for IC50: curve of first compound; for viability, T/C: stronger effect = lower value
Summary of the method: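 PDC + HUVEC + MSC complex spheroids; POLQ inhibitors ± partner drugs; top conc. at/near clinical Cmax, else 10 microM (SN-38 1 microM), half-log dilutions; 37 degrees C, 5% CO2.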

[1] = second compound 0.0316 µM, first compound 0.0316 µM
[2] = second compound 0.0316 µM, first compound 0.1 µM
[3] = second compound 0.0316 µM, first compound 0.316 µM
[4] = second compound 0.0316 µM, first compound 1 µM
[5] = second compound 0.0316 µM, first compound 3.16 µM
[6] = second compound 0.0316 µM, first compound 10 µM
[7] = second compound 0.1 µM, first compound 0.0316 µM
[8] = second compound 0.1 µM, first compound 0.1 µM
[9] = second compound 0.1 µM, first compound 0.316 µM
[10] = second compound 0.1 µM, first compound 1 µM
[11] = second compound 0.1 µM, first compound 3.16 µM
[12] = second compound 0.1 µM, first compound 10 µM
[13] = second compound 0.316 µM, first compound 0.0316 µM
[14] = second compound 0.316 µM, first compound 0.1 µM
[15] = second compound 0.316 µM, first compound 0.316 µM
[16] = second compound 0.316 µM, first compound 1 µM
[17] = second compound 0.316 µM, first compound 3.16 µM
[18] = second compound 0.316 µM, first compound 10 µM
[19] = second compound 1 µM, first compound 0.0316 µM
[20] = second compound 1 µM, first compound 0.1 µM
[21] = second compound 1 µM, first compound 0.316 µM
[22] = second compound 1 µM, first compound 1 µM
[23] = second compound 1 µM, first compound 3.16 µM
[24] = second compound 1 µM, first compound 10 µM
[25] = second compound 3.16 µM, first compound 0.0316 µM
[26] = second compound 3.16 µM, first compound 0.1 µM
[27] = second compound 3.16 µM, first compound 0.316 µM
[28] = second compound 3.16 µM, first compound 1 µM
[29] = second compound 3.16 µM, first compound 3.16 µM
[30] = second compound 3.16 µM, first compound 10 µM
[31] = second compound 10 µM, first compound 0.0316 µM
[32] = second compound 10 µM, first compound 0.1 µM
[33] = second compound 10 µM, first compound 0.316 µM
[34] = second compound 10 µM, first compound 1 µM
[35] = second compound 10 µM, first compound 3.16 µM
[36] = second compound 10 µM, first compound 10 µM
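Also: luminescence signal used as surrogate measure of viable cells; spheroids exposed to compounds for seven days before readout.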
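For viability, T/C in this document: 100% = DMSO vehicle control viability as luminescence relative to vehicle.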

COc1cccc2c1C(=O)c1c(O)c3c(c(O)c1C2=O)CC(O)(C(=O)CO)CC3OC1CC(N)C(O)C(C)O1 (stereo unspecified) + COC1C(OC(N)=O)C(O)C(Oc2ccc3c(O)c(NC(=O)c4ccc(O)c(CC=C(C)C)c4)c(=O)oc3c2C)OC1(C)C
IC50 (second compound 0.0316 µM): 0.0411 µM
IC50 (second compound 0.1 µM): 0.0364 µM
IC50 (second compound 0.316 µM): 0.0482 µM
IC50 (second compound 1 µM): 0.0376 µM
IC50 (second compound 3.16 µM): 0.0346 µM
IC50 (second compound 10 µM): 0.034 µM
viability, T/C [1]: 60.4%
viability, T/C [2]: 13.3%
viability, T/C [3]: 14.5%
viability, T/C [4]: 0.23%
viability, T/C [5]: 0.15%
viability, T/C [6]: 0.13%
viability, T/C [7]: 55.3%
viability, T/C [8]: 15.8%
viability, T/C [9]: 12.3%
viability, T/C [10]: 0.13%
viability, T/C [11]: 0.08%
viability, T/C [12]: 0.1%
viability, T/C [13]: 68.8%
viability, T/C [14]: 14.4%
viability, T/C [15]: 14.2%
viability, T/C [16]: 0.13%
viability, T/C [17]: 0.12%
viability, T/C [18]: 0.12%
viability, T/C [19]: 56.3%
viability, T/C [20]: 16.2%
viability, T/C [21]: 12.7%
viability, T/C [22]: 0.13%
viability, T/C [23]: 0.16%
viability, T/C [24]: 0.48%
viability, T/C [25]: 53.5%
viability, T/C [26]: 15.6%
viability, T/C [27]: 11.9%
viability, T/C [28]: 0.14%
viability, T/C [29]: 0.18%
viability, T/C [30]: 0.3%
viability, T/C [31]: 52.8%
viability, T/C [32]: 14%
viability, T/C [33]: 14.8%
viability, T/C [34]: 0.24%
viability, T/C [35]: 0.29%
viability, T/C [36]: 0.22%

CCc1cc2c(N3CCc4c(cc(Cn5ccnc5)cc4-c4cn(C)nc4C(F)(F)F)C3=O)cc(C)nc2c(OC)n1 + Nc1ccc(C#CCN(C(=O)Cc2ncc(C(F)(F)F)cc2C(F)(F)F)c2ccc(F)cc2)nn1
IC50 (second compound 0.0316 µM): 7.23 µM
IC50 (second compound 0.1 µM): 8.6 µM
IC50 (second compound 0.316 µM): 8.7 µM
IC50 (second compound 1 µM): 7.14 µM
IC50 (second compound 3.16 µM): 7.93 µM
IC50 (second compound 10 µM): 4.85 µM
viability, T/C [1]: 104%
viability, T/C [2]: 94.1%
viability, T/C [3]: 91.3%
viability, T/C [4]: 77.4%
viability, T/C [5]: 72.1%
viability, T/C [6]: 41.3%
viability, T/C [7]: 98.7%
viability, T/C [8]: 88.1%
viability, T/C [9]: 85.8%
viability, T/C [10]: 82.1%
viability, T/C [11]: 74.1%
viability, T/C [12]: 45.4%
viability, T/C [13]: 103%
viability, T/C [14]: 91.4%
viability, T/C [15]: 98.7%
viability, T/C [16]: 81.2%
viability, T/C [17]: 63.4%
viability, T/C [18]: 48.1%
viability, T/C [19]: 108%
viability, T/C [20]: 86.4%
viability, T/C [21]: 91.7%
viability, T/C [22]: 80.4%
viability, T/C [23]: 76%
viability, T/C [24]: 40%
viability, T/C [25]: 101%
viability, T/C [26]: 110%
viability, T/C [27]: 88.7%
viability, T/C [28]: 71.3%
viability, T/C [29]: 58.7%
viability, T/C [30]: 46.7%
viability, T/C [31]: 104%
viability, T/C [32]: 86.2%
viability, T/C [33]: 84.2%
viability, T/C [34]: 79.3%
viability, T/C [35]: 64.6%
viability, T/C [36]: 29.9%

O=C(c1cc(Cc2n[nH]c(=O)c3ccccc23)ccc1F)N1CCN(C(=O)C2CC2)CC1 + Nc1ccc(C#CCN(C(=O)Cc2ncc(C(F)(F)F)cc2C(F)(F)F)c2ccc(F)cc2)nn1
IC50 (second compound 0.0316 µM): 4.18 µM
IC50 (second compound 0.1 µM): 3.96 µM
IC50 (second compound 0.316 µM): 4.09 µM
IC50 (second compound 1 µM): 4.13 µM
IC50 (second compound 3.16 µM): 4.25 µM
IC50 (second compound 10 µM): 3.6 µM
viability, T/C [1]: 101%
viability, T/C [2]: 98.4%
viability, T/C [3]: 92.4%
viability, T/C [4]: 84.9%
viability, T/C [5]: 64.8%
viability, T/C [6]: 7.77%
viability, T/C [7]: 96.6%
viability, T/C [8]: 104%
viability, T/C [9]: 90%
viability, T/C [10]: 95.9%
viability, T/C [11]: 60.8%
viability, T/C [12]: 6.66%
viability, T/C [13]: 104%
viability, T/C [14]: 99.1%
viability, T/C [15]: 91.3%
viability, T/C [16]: 81.2%
viability, T/C [17]: 65.8%
viability, T/C [18]: 9.12%
viability, T/C [19]: 105%
viability, T/C [20]: 94.4%
viability, T/C [21]: 88.5%
viability, T/C [22]: 84.9%
viability, T/C [23]: 64.8%
viability, T/C [24]: 8.72%
viability, T/C [25]: 97.6%
viability, T/C [26]: 93.4%
viability, T/C [27]: 90.8%
viability, T/C [28]: 95.2%
viability, T/C [29]: 64.3%
viability, T/C [30]: 8.47%
viability, T/C [31]: 102%
viability, T/C [32]: 92%
viability, T/C [33]: 93.5%
viability, T/C [34]: 88.9%
viability, T/C [35]: 55.4%
viability, T/C [36]: 6.04%
